Reference: patent US20150075790A1, “OILFIELD BIOCIDE” (SCHLUMBERGER TECHNOLOGY CORPORATION, priority 2013, published 2015)

Legend:
Format in all cases: physicochemical
[1] = test system: bacteria or other biological agents known to degrade such fluids; assay: Viscosity of guar fluid after aging at 25° C. in a non-sterile environment (biocidal activity on a guar system); settings: relatively dilute concentrations; period of at least 6 days
Text: For purposes herein, aging of a fluid (e.g., a solution or mixture) in a non-sterile environment for purposes of determining the inhibition of biological degradation of the fluid may include the steps of preparing and characterizing a fluid in a non-sterile environment followed by allowing the fluid to age in the non-sterile environment (or non-sterile container) which is, or which has been in fluid communication with an external environment such that the fluid has been exposed to the ambient environment which inherently contains bacteria or other biological agents known to degrade such fluids at room temperature (i.e., 25° C.), followed by characterizing the aged fluid in essentially the same way under the same conditions using the same method utilized to characterize the fluid initially. […] The biocidal activity of a 2-oxo-aldehyde having 3 or more carbon atoms such as methylglyoxal on a guar system was evaluated. […] Samples were maintained at room temperature and their viscosities were measured directly after their preparation (in a non-sterile environment) and then again determined after the different periods of time aging at 25° C. in a non-sterile environment as indicated. The viscosity of sample B was determined initially and then again after 1, 2, 3, and 6 days of aging at 25° C. in a non-sterile environment, i.e., in a covered beaker on a lab bench. […]

[2] = Vortex closure time of boron-crosslinked guar solution, initially and after aging
Procedure: The effects of the biocide on cross linking were evaluated. It is known that chemical contamination may have a detrimental impact on the cross linking of guar and other polymers. The impact of 2-oxo-aldehyde such as MGO on guar crosslinking was evaluated using the vortex closure time of a solution of guar. Vortex closure time is determined by charging a portion of the gel in a blender and measuring the time required for the vortex produced upon initiation of mixing the solution in the blender to close. […] In other words, a non-crosslinked or minimally crosslinked mixture with have an infinite vortex closure time. The higher the level of crosslinking, the shorter the vortex closure time once mixing is initiated.
A comparative sample E and a sample F were prepared by mixing 0.5 g of guar in 99.5 g water and mixing in the blender. Sample F further included 0.4 g MGO solution (0.16 g of MGO). No vortex closure occurred while mixing the uncrosslinked samples. Next, an amount of a Boron based crosslinking agent was added to each of the mixing samples and the initial vortex closure time was measured as shown in Table 4. The vortex closure time was then measured after 4 days of aging at room temperature (25° C.) in a non-sterile environment, and then again after 6 days of aging at 25° C. […] The data also confirm that biological degradation has a pronounced effect on cross-linking.

[3] = Breaking schedule of crosslinked guar gel with oxidizer (breaker), viscosity at 66° C.; settings: shear rate 100 sec^-1, 66° C. (150° F.)
Procedure: Two samples were evaluated to determine the impact of the MGO on the breaking schedule of a guar solution. The viscosity of each sample was measured at a shear rate of 100 sec^−1 while aging at 66° C. (150° F.) in the presence of an oxidizer (a breaker) to determine the effect 2-oxo-aldehyde such as MGO has on gel stability. The data is shown graphically in FIG. 4.

[4] = test system: biological degradation of the concentrated guar fluids; assay: Viscosity of highly concentrated guar fluids (water in water emulsion) after aging and dilution; settings: ~200 ppt guar
Procedure: The efficacy of 2-oxo-aldehyde such as MGO as a biocide was investigated on highly concentrated guar fluids (˜200 ppt) produced as a water in water emulsion. Comparative sample G and sample H were prepared without and with MGO respectively. After dilution of the concentrated fluids (1 part of sample to 4 parts of water) their rheological properties were measured after 0, 1, 2, 3, and 4 days. The data are shown graphically in FIG. 5. […] After three days of aging at 25° C., comparative sample G (without MGO) presents a much lower viscosity than its initial value at day 0, i.e. the fluid in comparative sample G has been degraded.

CC(=O)C=O [MGO, methylglyoxal]
Effectiveness in reducing biological degradation of the guar fluid [1]: effective in reducing biological degradation | Impact on the vortex closure time ([2]; 160 mg/L (0.4 gpt), even after several days): does not have any impact on the vortex closure time | Interference with crosslinking of the polymer ([2]; boron based crosslinking agent, guar): does not prevent or interfere with the crosslinking | Impact on the breaking schedule of a guar gel (FIG. 4) [3]: does not have a significant impact on the breaking schedule | Prevention of biological degradation of concentrated guar fluids [4]: has prevented biological degradation
